In one data set the test system is MCF-7 cell lines. Nature of the data set: MTT antiproliferative assay. The format is cell-based, human. To be noted: for IC50: Homo sapiens, MCF7; for SI: selectivity index [IC50(MDA-MB-231)]/[IC50(MCF-7)]. In general terms: Tetrazolium dyes change colour on reduction, which living cells bring about.
A short description of data set [1]: MTT antiproliferative assay (neutral control). To be noted: human.
For a further data set, the system named is MDA-MB-231 cell lines. Nature of the data set: MTT antiproliferative assay. It is filed as cell-based, human. To be noted: Homo sapiens, MDA-MB-231.
A further data set deals with ERβ (Homo sapiens, UniProt Q92731). Nature of the data set: Fluorescence polarization competition assay: antagonistic potency and relative binding affinity. To be noted: for logRBA ERβ: log of % relative binding affinity, estradiol = 100%.
Sequence of ERβ (Q92731 whole entry): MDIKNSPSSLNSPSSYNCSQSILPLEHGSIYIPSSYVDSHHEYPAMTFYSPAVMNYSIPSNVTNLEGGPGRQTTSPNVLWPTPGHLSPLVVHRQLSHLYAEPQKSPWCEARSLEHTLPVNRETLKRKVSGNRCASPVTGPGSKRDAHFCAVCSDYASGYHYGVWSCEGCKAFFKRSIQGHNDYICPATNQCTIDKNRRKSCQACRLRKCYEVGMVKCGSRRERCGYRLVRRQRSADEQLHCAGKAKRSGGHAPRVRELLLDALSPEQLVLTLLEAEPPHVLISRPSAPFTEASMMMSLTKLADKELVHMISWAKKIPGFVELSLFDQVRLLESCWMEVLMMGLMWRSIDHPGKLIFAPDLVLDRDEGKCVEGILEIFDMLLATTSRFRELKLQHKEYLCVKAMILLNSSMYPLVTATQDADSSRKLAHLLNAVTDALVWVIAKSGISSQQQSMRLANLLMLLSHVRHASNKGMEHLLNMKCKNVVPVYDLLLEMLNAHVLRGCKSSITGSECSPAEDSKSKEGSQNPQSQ
Data set [2] deals with T1, ERα (Homo sapiens, UniProt P03372).
T1 sequence (P03372 1-595): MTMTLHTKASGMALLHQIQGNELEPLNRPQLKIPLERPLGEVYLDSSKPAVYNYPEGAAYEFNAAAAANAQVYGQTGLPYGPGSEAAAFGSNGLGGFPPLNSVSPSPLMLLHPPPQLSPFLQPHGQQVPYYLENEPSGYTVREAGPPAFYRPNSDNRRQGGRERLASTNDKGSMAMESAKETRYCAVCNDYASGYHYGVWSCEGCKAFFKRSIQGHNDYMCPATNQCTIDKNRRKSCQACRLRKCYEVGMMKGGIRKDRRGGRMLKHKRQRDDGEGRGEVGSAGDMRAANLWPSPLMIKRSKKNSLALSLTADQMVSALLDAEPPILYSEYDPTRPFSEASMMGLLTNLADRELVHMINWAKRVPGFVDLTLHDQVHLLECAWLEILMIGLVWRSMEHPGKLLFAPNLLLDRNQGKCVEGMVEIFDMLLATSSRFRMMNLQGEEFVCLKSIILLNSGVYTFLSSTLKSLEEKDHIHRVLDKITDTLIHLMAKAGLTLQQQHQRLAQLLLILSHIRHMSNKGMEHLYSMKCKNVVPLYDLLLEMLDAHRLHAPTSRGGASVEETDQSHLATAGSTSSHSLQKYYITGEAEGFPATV
Described as above. To be noted: for logRBA ERα: log of % relative binding affinity, estradiol = 100%; for ERα potency, fold more potent than 4-OHT: ratio of IC50 values.

Data set [3] deals with progesterone receptor (PR). Nature of the data set: ERα functional antagonism cell assay (PR as biomarker) in MCF-7. The format is cell-based. To be noted: Homo sapiens, MCF7; progesterone receptor as biomarker for ERα antagonism in MCF-7.
The subject of the next data set is MCF-7 cells. Nature of the data set: Cell cycle distribution by flow cytometry. The format is cell-based, human. To be noted: 24 h. In general terms: Flow cytometry measures light scatter and fluorescence of single cells or particles in a stream.
Data set [4] addresses T1, ERα. Put plainly: ERα down-regulation immunofluorescence assay in MCF-7. The format is cell-based.
Data set [5] has as its system Ishikawa endometrial adenocarcinoma cells. Put plainly: Antiproliferative assay. To be noted: Homo sapiens, growth inhibition. It is filed as cell-based. The source says:
As SERMs profile is often associated with the stimulation of endometrial cell proliferation and an increase in the incidence of endometrial cancer (EC), the herein compounds were therefore evaluated against Ishikawa endometrial adenocarcinoma cells (Table 8, Supplementary Material Figures […]). […] However, future experimental elaboration, currently beyond the authors' experimental facilities, is required to confirm compounds' promising profiles in terms of no EC induction.

The nature of data set [6]: Serum biochemical markers after treatment of MNU-induced rats. It is filed as in vivo, Wistar rats. Also on record: TBC: unit not given here. To be noted: dose 50 mg/kg. As for the experimental part:
(§1) Rats were housed at 3 per cage and
(§2) The breast cancer was induced after the MNU (Sigma Aldrich CAS No. 684-93-5) administration. An aqueous solution at a concentration of 10 mg/ml was made by wetting the NMU powder with 3% acetic acid and then dissolving it in 0.9% NaCl solution; a fresh solution was prepared for each injection. Rats were given intraperitoneal (i.p.) 50 mg/kg of MNU on the 50th day of age. Animals were divided into different groups with six animals in each group. Group I (intact control) received 0.9% NaCl solution.
(§3) Groups II-IV and V-VII were introduced with MNU. Two weeks after MNU treatment, animals were treated orally with synthesized compounds and control substances (5 and 50 mg/kg, for groups II-IV and V-VII, respectively) by gavage once per day for six weeks. Animals in the intact control group and untreated MNU group were given vehicle (Tween 80) according to the experimental protocol. […]
Upon finishing the treatment with synthesized compounds, animals were sacrificed, and plasma, serum, and liver samples were collected.
Measurement of Serum Biochemical Markers
The activities of AST and ALT on 340 nm, and ALP on 405 nm, were determined by UV-Vis kinetic methods according to recommendations of the Expert Panel of the IFCC (International Federation of Clinical Chemistry). The colorimetric methods were used for the determination of total bilirubin (Jendrassik-Grof 550 nm method). All kinetic and colorimetric measurements were recorded using a Perkin-Elmer Lambda 25 UV/Vis spectrophotometer. […]

A short description of data set [7]: Liver oxidative stress markers after treatment of MNU-induced rats. To be noted: liver, dose 50 mg/kg. The format is in vivo, Wistar rats. As for the experimental part:
as §1, §2, §3
Upon finishing the treatment with synthesized compounds, animals were sacrificed, and plasma, serum, and liver samples were collected. […]
Determination of Antioxidant Markers in Liver Homogenate
Rat liver samples were homogenized in phosphate buffer (5 mM, pH = 7.4) to give a 10% (w/v) liver homogenate and then centrifuged at 4000 rpm for 15 min at 4°C. The supernatant of liver homogenate was used for the estimation of reduced glutathione (GSH) and catalase (CAT) levels by the colorimetric method. The contents of malondialdehyde (MDA) in the supernatant of the liver homogenates were determined using 1,1,3,3-tetraethoxypropane as standard. Total protein concentrations were determined according to the method of Lowry using bovine serum albumin as […]

Data set [8] deals with MNU-induced breast cancer. Put plainly: In vivo anticancer screening, MNU-induced mammary tumorigenesis. To be noted: dose 50 mg/kg (compounds per os after MNU; MNU alone i.p.). Also on record: species or system female Wistar rats.
The test system of data set [9] is MNU-induced breast cancer tissue. Nature of the data set: Histopathology of breast sections. To be noted: 50 mg/kg of bwt. The format is in vivo, Wistar rats. The source says: The impact of selected leads on BC tissue was registered after their administration to experimental animals with MNU-induced BC (Figure 9 and Supplementary Material Figures S211–S218). […] In contrast to this, the administered leads were harmless in both concentrations, neutralizing the MNU-induced changes, judging by the lobuloalveolar units and cuboidal epithelial cells found (Figure 9C,D, and Supplementary Material Figures S214–S218). […]
Histopathological Studies
histopathological changes. […]

[10] abbreviates: growth inhibition, 48 h, read-out: MCF-7 (IC50 nM).
[11] abbreviates: growth inhibition, 48 h, read-out: MDA-MB-231 (IC50 nM).
Setting [12] is: 1 nM as lower concentration (3DPQ-5, 3DPQ-6, 3DPQ-8).
[13] abbreviates: MFD 1000 mg/kg (MNU: MTD 100 mg/kg bwt), 5 days.

Where two headings read alike, the source gives them in different places. Marks after values point to notes of the source that are not given here.

Results on 4 compounds are retold here after article PMC9101642 (Molecules, 2022).

Regarding `C[C@H]1CCC/C=C/[C@@H]2C[C@H](O)C[C@H]2[C@H](O)/C=C/C(=O)O1` [BFA, Brefeldin A, reference compound], the concentration for half-maximal inhibition (IC50) (commonly the concentration needed to halve the response being measured) in the data set with MCF-7 cell lines (virtually screened NCI hits, Table S17, read-out: MCF-7 (IC50)) was 9010 nM; in the data set on MDA-MB-231 cell lines (virtually screened NCI hits, Table S17, read-out: MDA-MB-231 (IC50)), above 100000 nM. Moreover, in [1], the IC50 at 48 h was above 100000 nM.

Turning to `CC(=O)c1cc(C(=O)OC2C=CC(=O)OC(O)CCCC=CC3CC(O)CC32)ccc1OCCN1C(=O)CCC1=O` (stereo not shown) [Compound 3DPQ-5, -decahydro-1H-cyclopenta[f][1]oxacyclotridecin-1-yl 3-acetyl-4-(2-(2,5-dioxopyrrolidin-1-yl)ethoxy)benzoate], the IC50 was 1.02 ± 0.64 nM in the data set with MCF-7 cell lines (setting [10]); 52.6 ± 0.69 nM in the data set on MDA-MB-231 cell lines (setting [11]); 74.41 ± 0.46 nM at ERβ (concentration that antagonizes 50% of ERβ signaling activity, read-out: ERβ (IC50 nM)); 0.81 ± 0.43 nM on ERα [2] (concentration that antagonizes 50% of ERα signaling activity, read-out: ERα (IC50 nM)); above 100 nM in [3]; above 100 nM on ERα [4] (ERα downregulation measured in MCF-7, read-out: MCF-7 DR (IC50 nM)). Also, in [5], the IC50 was 1.42 ± 0.32 nM. Besides, the SI in the data set with MCF-7 cell lines is on record as 51.61 ^‡,§. In addition, the IC50 at 48 h in data set [1] is above 100 nM. Besides, the Ki at ERβ (calculated antagonistic (inhibitory) constant, read-out: Ka ERβ) is 41.8 nM; at ERα [2] (calculated antagonistic (inhibitory) constant, read-out: Ka ERα), 0.18 nM. The “logRBA ERβ” value on ERβ is given as 0.08 ^†,‡,§. For the same compound, on ERα [2], the “logRBA ERα” value is given as 2.04 ^‡. Besides, the “ERα potency, fold more potent than 4-OHT” value on ERα [2] was 1.38 fold. Also, the “Cell Cycle (%) G0/G1” value with MCF-7 cells (setting [12]) was 71.78 ± 0.67 *^,†,‡,§ %; in the data set with MCF-7 cells (10 nM (3DPQ-5, 3DPQ-6, 3DPQ-8)), 74.24 ± 2.15 *^,†,‡,§ %. The “Cell Cycle (%) G2/M” value is 19.01 ± 3.55 *^,†,‡,§ % with MCF-7 cells (setting [12]) and 15.85 ± 4.43 *^,†,‡,§ % in the data set with MCF-7 cells (10 nM (3DPQ-5, 3DPQ-6, 3DPQ-8)). In addition, the “Cell Cycle (%) S” value is 9.21 ± 1.95 *^,†,‡,§ % in the data set on MCF-7 cells (setting [12]) and 9.92 ± 0.76 *^,†,‡,§ % in the data set on MCF-7 cells (10 nM (3DPQ-5, 3DPQ-6, 3DPQ-8)).

On to `CC(=O)c1cc(C(=O)O[C@@H]2/C=C/C(=O)O[C@@H](O)CCC/C=C/[C@@H]3C[C@H](O)C[C@H]32)ccc1OCCN1Cc2cccnc2C1` [Compound 3DPQ-6, (1R,2E,6R,10E,11aS,13S,14aR)-6,13-dihydroxy-4-oxo-4,6,7,8,9,11a,12,13,14,14a-decahydro-1H-cyclopenta[f][1]oxacyclotridecin-1-yl 4-(2-(5H-pyrrolo[3,4-b]pyridin-6(7H)-yl)ethoxy)-3-acetylbenzoate], for which the IC50 with MCF-7 cell lines (setting [10]) is 1.14 ± 0.49 nM; in the data set with MDA-MB-231 cell lines (setting [11]), 52.31 ± 0.46 nM; on ERβ, 86.56 ± 0.33 nM; on ERα [2], 0.84 ± 0.11 nM; in [3], above 100 nM; at ERα [4], above 100 nM. For the same compound, the IC50 in [5] turned out to be 1.46 ± 0.43 nM. Further, the SI in the data set with MCF-7 cell lines was 45.89 ^‡,§. In addition, in [1], the IC50 at 48 h is above 100 nM. In addition, the Ki on ERβ was determined as 48.6 nM; on ERα [2], 0.19 nM. Moreover, the “logRBA ERβ” value at ERβ is 0.01 ^†,‡,§. The “logRBA ERα” value on ERα [2] is recorded as 2.03 ^‡. For the same compound, the “ERα potency, fold more potent than 4-OHT” value at ERα [2] is on record as 1.33 fold. Besides, the “Cell Cycle (%) G0/G1” value with MCF-7 cells (setting [12]) is given as 70.52 ± 1.53 *^,†,‡,§ %; in the data set on MCF-7 cells (10 nM (3DPQ-5, 3DPQ-6, 3DPQ-8)), 71.98 ± 2.44 *^,†,‡,§ %. Also, the “Cell Cycle (%) G2/M” value in the data set with MCF-7 cells (setting [12]) is 16.21 ± 3.25 *^,†,‡,§ %; with MCF-7 cells (10 nM (3DPQ-5, 3DPQ-6, 3DPQ-8)) it was 14.05 ± 2.43 *^,†,‡,§ %. Further, the “Cell Cycle (%) S” value in the data set with MCF-7 cells (setting [12]) was 13.27 ± 2.64 *^,†,‡,§ %; in the data set on MCF-7 cells (10 nM (3DPQ-5, 3DPQ-6, 3DPQ-8)), 13.98 ± 1.33 *^,†,‡,§ %.

`CN(N=O)C(N)=O` [MNU, Methyl nitrosourea, reference compound]: under setting [13], the colon section histopathology result was “induced colon”, the heart section histopathology result is “interstitial hydrops”, the kidney section histopathology entry was “large size neoplastic lymphocytes infiltrated into the interstitial” and the liver section histopathology result was “numerous numbers of medium to large size neoplastic lymphocytes”. Moreover, under setting [13], the lung section histopathology result is “alveolar bronchiolar” and the spleen section histopathology entry is recorded as “faded red pulp”. Where the note is “average body weight at day 1, dosing at MFD”, the “WL after MFD (day 1, mg)” value was found to be 305.44 ± 0.62 mg. In addition, the “MFD (5 days)” value (maximum feasible (or tolerated) dose, 5 days per os, 5-1000 mg/kg bwt) amounted to 100 mg/kg. Besides, in [6] (serum), the “ALP (A/L)” value is 232.54±0.32 A/L, the “ALT (A/L)” value was determined as 157.31 A/L, the “AST (U/L)” value was 135.43 U/L and the “γ-GT (U/L)” value is on record as 19.43±0.42 U/L. In data set [6] (total bilirubin content), this compound had a TBC of 32.34. The CAT in [7] (catalase activity) is recorded as 3.08±0.68. Further, the “TBARS” value in data set [7] was 3.31 ± 0.72 nmol/mg. Besides, the “SOD (U/mg)” value in [7] (superoxide dismutase activity) was 3.32±0.14 U/mg. Besides, the “TP” value in [7] (total protein content) was 51.32 ± 0.43 g/L. Further, in data set [8], the “Tumor Burden (week)” value is 4.55 ± 0.15 *^,‡,§,‖,┴ week, the “Tumor Latency (week)” value is 5 *^,†,‡,§,‖,┴ week and the “Tumor Volume (mm^3)” value was determined as 4.48 ± 0.54 mm^3. In [9], the breast section histopathology entry was “mammary gland carcinoma alongside with massive proliferation of neoplastic epithelial cells (EC)”.
